Measured values reported in patent US4892885A, “Esters of (triarylphosphoranylidene)carbamic acid for effecting diuresis” (American Cyanamid Company, priority 1988, dated 1990).

Tests used:
[1] = test system: Spontaneously Hypertensive Rats; experiment: Diuretic activity in spontaneously hypertensive rats (0-5 hour urine); assay type: in vivo, Male spontaneously hypertensive rats (SHR) of Okamoto strain; conditions: 100 mg/kg by gavage, sodium chloride loading, SHR
Experimental: The diuretic activity of the compounds of this invention was also determined according to the method of Chan, P. S. and Poorvin, D., "Sequential method for combined screening antihypertensive and diuretic agents in the same spontaneously hypertensive rat." Clinical and Experimental Hypertension, 1(6), 817-830 (1979). Male spontaneously hypertensive rats (SHR) of Okamoto strain, 16 weeks old, Taconic Farms Inc. were used in the test. These rats were kept on Purina laboratory chow and tap water ad libitum for 8 weeks before use. One male adult rat (about 300 g) was dosed by gavage with a test compound at 100 mg/kg together with 0.9 sodium chloride loading at […] at zero hour. The tese compound was suspended in 3% preboiled starch at 50 mg/ml. The rat was put in a metabolism cage. The 0-5 hour urine was collected and urinary sodium and potassium were determined using a Beckman Astra 4.

plasma renin activity = experiment: Inhibition of evoked (drug-induced) increase of plasma renin activity (PRA) in conscious rats; assay type: in vivo; conditions: 25 mg/kg oral, 30 minutes prior to hydrochlorothiazide (10 mg/kg) + ACE inhibitor (1 mg/kg) provocative treatment; male Wistar rats; number of rats in parentheses
Experimental: Inhibition of evoked increase of plasma renin activity was determined by the following test.
Compounds were tested for their ability to prevent drug-induced elevation of plasma renin activity (PRA) in conscious, male Wistar rats (180-200 g, Charles River Lab.). PRA elevation was induced by a combined oral provocative treatment (C) of hydrochlorothiazide (10 mg/kg) and 1-(3-benzoyl-3-mercapto-2-methylpropionyl)-L-proline, acetate (U.S. Pat. No. 4,226,775) (one mg/kg), prepared by compounding in a mortar and pestle with preboiled 3% starch suspension. This treatment provided the daily maximum PRA. The daily minimum PRA was obtained from rats given oral starch suspension (S) alone. The magnitude of drug effect on PRA elevation was ascertained from rats pretreated orally with test agent (D), at the indicated doeses, 30 minutes prior to administration of provocative treatment (C). The test agent was also compounded in preboiled 3% starch suspension. The dose volumes for both pretreatment and provocative treatment were 2 ml/kg. One hour after provocative treatment the rats were sacrificed by decapitation and the first 3 seconds of blood collected in two chilled vacutainer tubes containing […] of 150 mg/ml tripotassium EDTA. […]
PRA is calculated as follows: PRA ([…])=PRA 37° C.-PRA 4° C.
Percent inhibition of PRA elevation is calculated as follows: [formula]

Row | Compound | Potassium (urinary) [1] | Sodium (urinary) [1] | Volume (urine) [1] | Percent Inhibition of Plasma Renin Elevation, Average % Inhibition (No. of rats) (plasma renin activity)
1 | CCOC(=O)N=P(c1ccccc1)(c1ccccc1)c1ccccc1CN1CCCCC1 [[Diphenyl[2-(1-piperidinylmethyl)phenyl]phosphoranylidene]carbamic acid, ethyl ester] | 0.37 MEQ/5 Hours | 1.92 MEQ/5 Hours | 18.8 mL | –
2 | CCOC(=O)N=P(c1ccccc1)(c1ccccc1)c1ccccc1CN1CCCC1 [[Diphenyl[2-(1-pyrrolidinylmethyl)phenyl]phosphoranylidene]carbamic acid, ethyl ester] | 0.56 MEQ/5 Hours | 1.36 MEQ/5 Hours | 12.0 mL | –
3 | CCOC(=O)N=P(c1ccccc1)(c1ccccc1)c1ccccc1CN(C)C [[[2-[(Dimethylamino)methyl]phenyl]diphenylphosphoranylidene]carbamic acid, ethyl ester] | 0.67 MEQ/5 Hours | 1.47 MEQ/5 Hours | 15.5 mL | 16%
4 | COC(=O)N=P(c1ccccc1)(c1ccccc1)c1ccccc1CN(C)C [[[2-[(Dimethylamino)methyl]phenyl]diphenylphosphoranylidene]carbamic acid, methyl ester] | 0.83 MEQ/5 Hours | 1.62 MEQ/5 Hours | 19.5 mL | 77%
5 | CCCN(CCC)Cc1ccccc1P(=NC(=O)OCC)(c1ccccc1)c1ccccc1 [[[2-[(Dipropylamino)methyl]phenyl]diphenylphosphoranylidene]carbamic acid, ethyl ester] | 0.40 MEQ/5 Hours | 1.41 MEQ/5 Hours | 22.0 mL | –
6 | CCOC(=O)N=P(c1ccccc1)(c1ccccc1)c1ccccc1CNC.Cl [[[2-[(Methylamino)methyl]phenyl]diphenylphosphoranylidene]carbamic acid, ethyl ester, monohydrochloride] | 0.51 MEQ/5 Hours | 1.66 MEQ/5 Hours | 17.5 mL | –
7 | CCOC(=O)N=P(c1ccccc1)(c1ccccc1)c1ccccc1CN(CC)CC [[[[2-(Diethylamino)methyl]phenyl]diphenylphosphoranylidene]carbamic acid, ethyl ester] | 0.48 MEQ/5 Hours | 2.46 MEQ/5 Hours | 23.3 mL | –
